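Five compound concentrations were applied to cells in 96-well plates for 48 hours; endpoints were derived by simple linear interpolation of the resulting dose-response curve. Abbreviation: GI50, concentration required for 50% inhibition of growth. Definition used: TGI = concentration required for complete inhibition of growth.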
Tests used:
Assay in all cases: DTP human tumour cell line panel, 48 h
[1] = test system: HS 578T breast
[2] = test system: MALME-3M melanoma
[3] = test system: CCRF-CEM leukemia
[4] = test system: NCI-H23 lung
[5] = test system: OVCAR-4 ovarian
[6] = test system: RXF 393 renal
[7] = test system: LOX IMVI melanoma
[8] = test system: HOP-92 NSCLC
[9] = test system: 786-0 renal
[10] = test system: ACHN renal
[11] = test system: IGROV1 ovarian
[12] = test system: MDA-MB-435
[13] = test system: SF-268 CNS
[14] = test system: U251 CNS
[15] = test system: HT29 colon
[16] = test system: UACC-62 melanoma
[17] = test system: DU-145 prostate
[18] = test system: A498 renal
[19] = test system: KM12 colon
[20] = test system: COLO 205 colon
[21] = test system: HCC-2998 colon
[22] = test system: MOLT-4 leukemia
[23] = test system: UACC-257 melanoma
[24] = test system: HOP-62 NSCLC
[25] = test system: OVCAR-5 ovarian
[26] = test system: HCT-15 colon
[27] = test system: CAKI-1 renal
[28] = test system: BT-549 breast
[29] = test system: OVCAR-8 ovarian
[30] = test system: NCI-H522 lung
[31] = test system: SK-MEL-5 melanoma
[32] = test system: MDA-MB-231 breast
[33] = test system: SF-295 CNS
[34] = test system: SK-OV-3 ovarian
[35] = test system: SR leukemia
[36] = test system: UO-31 renal
[37] = test system: SNB-19 CNS
[38] = test system: EKVX NSCLC
[39] = test system: TK-10 renal
[40] = test system: M14 melanoma
[41] = test system: MCF7 breast
[42] = test system: NCI-H460 lung
[43] = test system: K-562 leukemia
[44] = test system: SK-MEL-2 melanoma
[45] = test system: NCI/ADR-RES ovarian
[46] = test system: SK-MEL-28 melanoma
[47] = test system: HCT-116 colon
[48] = test system: A549 NSCLC
[49] = test system: SW-620 colon
[50] = test system: RPMI-8226 leukemia
[51] = test system: T-47D breast
[52] = test system: SNB-75 CNS
[53] = test system: HL-60(TB) leukemia
[54] = test system: NCI-H226 lung
[55] = test system: SF-539 CNS
[56] = test system: SN12C renal
[57] = test system: PC-3 prostate

Oc1ccc(CSc2nnc(-c3cnccn3)o2)c2cccnc12
GI50 [1]: 340 nM | TGI [1]: > 100000 nM | GI50 [2]: 283 nM | TGI [2]: 2190 nM | GI50 [3]: 536 nM | TGI [3]: > 100000 nM | GI50 [4]: 371 nM | TGI [4]: > 100000 nM | GI50 [5]: 643 nM | TGI [5]: > 100000 nM | GI50 [6]: 522 nM | TGI [6]: > 41000 nM | GI50 [7]: 383 nM | TGI [7]: > 100000 nM | GI50 [8]: 202 nM | TGI [8]: 592 nM | GI50 [9]: 590 nM | TGI [9]: > 100000 nM | GI50 [10]: 432 nM | TGI [10]: > 100000 nM | GI50 [11]: 812 nM | TGI [11]: > 100000 nM | GI50 [12]: 359 nM | TGI [12]: > 100000 nM | GI50 [13]: 453 nM | TGI [13]: > 100000 nM | GI50 [14]: 370 nM | TGI [14]: > 100000 nM | GI50 [15]: 4000 nM | TGI [15]: > 100000 nM | GI50 [16]: 517 nM | TGI [16]: 15700 nM | GI50 [17]: 472 nM | TGI [17]: > 100000 nM | GI50 [18]: 2220 nM | TGI [18]: 7220 nM | GI50 [19]: 638 nM | TGI [19]: > 100000 nM | GI50 [20]: 3220 nM | TGI [20]: 11100 nM | GI50 [21]: 697 nM | TGI [21]: > 100000 nM | GI50 [22]: 488 nM | TGI [22]: > 100000 nM | GI50 [23]: 407 nM | TGI [23]: 4720 nM | GI50 [24]: 449 nM | TGI [24]: > 100000 nM | GI50 [25]: 1420 nM | TGI [25]: > 100000 nM | GI50 [26]: 385 nM | TGI [26]: > 100000 nM | GI50 [27]: 605 nM | TGI [27]: > 100000 nM | GI50 [28]: 283 nM | TGI [28]: 8560 nM | GI50 [29]: 381 nM | TGI [29]: > 100000 nM | GI50 [30]: 415 nM | TGI [30]: > 100000 nM | GI50 [31]: 229 nM | TGI [31]: 530 nM | GI50 [32]: 840 nM | TGI [32]: > 100000 nM | GI50 [33]: 364 nM | TGI [33]: > 100000 nM | GI50 [34]: 700 nM | TGI [34]: > 23700 nM | GI50 [35]: 395 nM | TGI [35]: > 100000 nM | GI50 [36]: 426 nM | TGI [36]: > 32200 nM | GI50 [37]: 390 nM | TGI [37]: > 100000 nM | GI50 [38]: 505 nM | TGI [38]: > 100000 nM | GI50 [39]: 3070 nM | TGI [39]: > 100000 nM | GI50 [40]: 475 nM | TGI [40]: > 85200 nM | GI50 [41]: 305 nM | GI50 [42]: 336 nM | TGI [42]: > 100000 nM | GI50 [43]: 363 nM | TGI [43]: > 100000 nM | GI50 [44]: 314 nM | TGI [44]: 998 nM | GI50 [45]: 1890 nM | TGI [45]: > 100000 nM | GI50 [46]: 711 nM | TGI [46]: > 100000 nM | GI50 [47]: 334 nM | TGI [47]: > 100000 nM | GI50 [48]: 404 nM | TGI [48]: > 100000 nM | GI50 [49]: 445 nM | TGI [49]: > 100000 nM | GI50 [50]: 395 nM | TGI [50]: > 100000 nM | GI50 [51]: 379 nM | TGI [51]: > 100000 nM | GI50 [52]: 332 nM | TGI [52]: > 100000 nM | GI50 [53]: 410 nM | GI50 [54]: 1750 nM | TGI [54]: > 29600 nM | GI50 [55]: 419 nM | TGI [55]: > 100000 nM | GI50 [56]: 317 nM | TGI [56]: > 100000 nM | GI50 [57]: 335 nM | TGI [57]: > 100000 nM
